One assay concerns T47D cells. Nature of the assay: Cellular Growth Inhibition Assay for T47D Cells (CellTiter-Glo). The class given is cell-based, human. As to conditions: 72 hours. The gist of the method: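 GI50 values derive from four-parameter regression of CellTiter-Glo 2.0 luminescence, using zero luminescence as baseline. Human breast cancer T47D cells (3000/well; DMEM, 10% FBS, 0.2 units/mL insulin) were exposed for 72 h to compound dilutions at 0.5% DMSO, with dosing starting 24 h after seeding.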
Background: ATP-based viability assays read luminescence as a measure of living cells.

Assay [1] concerns T-Rex 293 cell line SC3 cells lacking increased expression of androgen receptor protein. Nature of the assay: Cellular growth inhibition, T-Rex 293 SC3 cells without doxycycline (no increased androgen receptor expression), CellTiter-Glo. It counts as cell-based. As to conditions: T-Rex 293 SC3 cells not exposed to doxycycline (no increased androgen receptor expression), 72 hours. The method in brief:
(§1)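 Growth inhibition is measured in an inducible AR-expressing T-Rex 293 clone, SC3, cultured with or without 10 ng/mL doxycycline in hormone-depleted medium. Test compounds are applied for 72 hours. GI50 values derive from CellTiter-Glo 2.0 signal fitted by four-parameter regression.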

A further assay has as its system VCaP cells. Nature of the assay: Cellular growth inhibition assay for VCaP cells, CellTiter-Glo. It counts as cell-based, human. As to conditions: 72 hours. The method in brief:
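GI50 values come from four-parameter curve fits of luminescence data normalized to a zero baseline. Compound, in medium with 0.5% DMSO, was added one day after plating and left for 72 h before CellTiter-Glo 2.0 addition.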

In assay [2] the test system is T-Rex 293 cell line SC3 cells having increased expression of androgen receptor protein due to exposure to doxycycline. Nature of the assay: Cellular growth inhibition, T-Rex 293 SC3 cells with doxycycline (increased androgen receptor expression), CellTiter-Glo. The class given is cell-based. As to conditions: T-Rex 293 SC3 cells with 10 ng/mL doxycycline (increased androgen receptor expression), 72 hours, CellTiter-Glo 2.0. The gist of the method: as §1

The structures appear in SMILES notation. Bounds are passed on as bounds.

For orientation: GI50 means the concentration at which growth is held to half of that of the control. Consider `Cn1cc(-c2cc(C(C)(C)O)ccc2Oc2cccc(N3CC(CN4CCN(c5ncc(C(=O)N[C@H]6C(C)(C)[C@H](Oc7ccc(C#N)c(Cl)c7)C6(C)C)cn5)C5(CC5)C4)C3)c2F)c2cc[nH]c2c1=O` [Compound I-273], for which the GI50 in the assay on T47D cells is less than 500 nM; in assay [1] it was 500 to 1500 nM; in the assay on VCaP cells, less than 500 nM; in assay [2], less than 500 nM.

With `Cn1cc(-c2cc(C(C)(C)O)ccc2Oc2ccc(N3CC(CC4CN(c5ccc(C(=O)N[C@H]6C(C)(C)[C@H](Oc7ccc(C#N)c(Cl)c7)C6(C)C)cc5)C4)C3)cc2)c2cc[nH]c2c1=O` [Compound I-336], the GI50 is less than 500 nM with T47D cells (Homo sapiens), greater than 3000 nM in assay [1], greater than 3000 nM in the assay on VCaP cells (Homo sapiens) and less than 500 nM in assay [2].

On to `CCS(=O)(=O)Nc1ccc(Oc2cccc(CC3CCN(c4ncc(C(=O)N[C@H]5C(C)(C)[C@H](Oc6ccc(C#N)c(Cl)c6)C5(C)C)cn4)CC3)c2)c(-c2cn(C)c(=O)c3[nH]ccc23)c1` [Compound I-23], for which the GI50 (in the assay on T47D cells (Homo sapiens); in assay [1]; in the assay on VCaP cells (Homo sapiens); in assay [2]) was less than 500 nM in each case.

For `CCS(=O)(=O)Nc1ccc(Oc2cccc(OC3CCN(C4CCN(c5ncc(C(=O)N[C@H]6C(C)(C)[C@H](Oc7ccc(C#N)c(Cl)c7)C6(C)C)cn5)CC4)C3)c2)c(-c2cn(C)c(=O)c3[nH]ccc23)c1` (stereo partly shown) [Compound I-43], the GI50 in the assay on T47D cells (Homo sapiens) was less than 500 nM; in assay [1] it was 1500 to 3000 nM; in the assay with VCaP cells (Homo sapiens), less than 500 nM; in assay [2], less than 500 nM.

As to `Cn1cc(-c2cc(C(C)(C)O)ccc2Oc2ccc(OC[C@@H]3CCCN(c4ncc(C(=O)N[C@H]5C(C)(C)[C@H](Oc6ccc(C#N)c(Cl)c6)C5(C)C)cn4)C3)cc2)c2cc[nH]c2c1=O` [Compound I-339], the GI50 in the assay on T47D cells (Homo sapiens) was less than 500 nM; in assay [1] it was greater than 3000 nM; with VCaP cells (Homo sapiens), greater than 3000 nM; in assay [2] it was less than 500 nM.

Turning to `CCS(=O)(=O)Nc1ccc(Oc2cccc(N3CCC(OC4CCN(c5ncc(C(=O)N[C@H]6C(C)(C)[C@H](Oc7ccc(C#N)c(Cl)c7)C6(C)C)cn5)CC4)C3)c2)c(-c2cn(C)c(=O)c3[nH]ccc23)c1` (stereo partly shown) [Compound I-81], the GI50 in the assay on T47D cells (Homo sapiens) is less than 500 nM; in assay [1], greater than 3000 nM; in the assay with VCaP cells (Homo sapiens) it was less than 500 nM; in assay [2], less than 500 nM.

In the case of `Cn1cc(-c2cc(C(C)(C)O)ccc2OC2CCC(N3CC(OC4CCN(c5ncc(C(=O)NC6C(C)(C)C(Oc7ccc(C#N)c(Cl)c7)C6(C)C)cn5)CC4)C3)CC2)c2cc[nH]c2c1=O` (stereo not shown) [Compound I-289], the GI50 in the assay on T47D cells is 1500 to 3000 nM; in assay [1] it was 1500 to 3000 nM; with VCaP cells it was 500 to 1500 nM; in assay [2] it was less than 500 nM.

With `CCS(=O)(=O)c1ccc(Oc2ccc(CCCC3CCN(c4ncc(C(=O)N[C@H]5C(C)(C)[C@H](Oc6ccc(C#N)c(Cl)c6)C5(C)C)cn4)CC3)c(F)c2)c(-c2cn(C)c(=O)c3[nH]ccc23)c1` [Compound I-285], the GI50 with T47D cells (Homo sapiens) is less than 500 nM; in assay [1], greater than 3000 nM; with VCaP cells (Homo sapiens), less than 500 nM; in assay [2], less than 500 nM.

On to `Cn1cc(-c2cc(C(C)(C)O)ccc2Oc2ccc(C3CC(N4CC5(CN(c6ncc(C(=O)N[C@H]7C(C)(C)[C@H](Oc8ccc(C#N)c(Cl)c8)C7(C)C)cn6)C5)C4)C3)cc2)c2cc[nH]c2c1=O` (stereo partly shown) [Compound I-331], for which the GI50 (with T47D cells; in assay [1]; in the assay with VCaP cells; in assay [2]) was less than 500 nM each time.

As to `Cn1cc(-c2cc(C(C)(C)O)ccc2Oc2ccc(CCC3CCCN(c4ncc(C(=O)N[C@H]5C(C)(C)[C@H](Oc6ccc(C#N)c(Cl)c6)C5(C)C)cn4)C3)cc2)c2cc[nH]c2c1=O` (stereo partly shown) [Compound I-301], the GI50 is less than 500 nM in the assay with T47D cells, greater than 3000 nM in assay [1], 500 to 1500 nM in the assay on VCaP cells and less than 500 nM in assay [2].

`Cn1cc(-c2cc(C(C)(C)O)ccc2Oc2cccc(CC3CCC4(CC3)CCN(c3ncc(C(=O)N[C@H]5C(C)(C)[C@H](Oc6ccc(C#N)c(Cl)c6)C5(C)C)cn3)CC4)c2)c2cc[nH]c2c1=O` [Compound I-318]: the GI50 is less than 500 nM in the assay on T47D cells, greater than 3000 nM in assay [1], greater than 3000 nM in the assay on VCaP cells and less than 500 nM in assay [2].

For the compound `CCS(=O)(=O)Nc1ccc(Oc2cccc(C3CC(C4CCN(c5ncc(C(=O)N[C@H]6C(C)(C)[C@H](Oc7ccc(C#N)c(Cl)c7)C6(C)C)cn5)CC4)C3)c2)c(-c2cn(C)c(=O)c3[nH]ccc23)c1` (stereo partly shown) [Compound I-157], the GI50 was less than 500 nM in the assay on T47D cells (Homo sapiens), greater than 3000 nM in assay [1], less than 500 nM in the assay with VCaP cells (Homo sapiens) and less than 500 nM in assay [2].

Take `CCS(=O)(=O)Nc1ccc(Oc2cccc(N3CC(N(C)C4CCN(c5ncc(C(=O)N[C@H]6C(C)(C)[C@H](Oc7ccc(C#N)c(Cl)c7)C6(C)C)cn5)CC4)C3)c2F)c(-c2cn(C)c(=O)c3[nH]ccc23)c1` [Compound I-178]: the GI50 (with T47D cells; in assay [1]; in the assay on VCaP cells; in assay [2]) was less than 500 nM throughout.

With `Cn1cc(-c2cc(C(C)(C)O)ccc2Oc2ccc(CCC3CCN(c4cnc(C(=O)N[C@H]5C(C)(C)[C@H](Oc6ccc(C#N)c(Cl)c6)C5(C)C)cn4)CC3)nc2)c2cc[nH]c2c1=O` [Compound I-341], the GI50 (in the assay on T47D cells; in assay [1]; with VCaP cells; in assay [2]) was less than 500 nM throughout.

Take `Cn1cc(-c2ccccc2Oc2cccc(CCOC3CCN(c4ncc(C(=O)N[C@H]5C(C)(C)[C@H](Oc6ccc(C#N)c(Cl)c6)C5(C)C)cn4)CC3)c2F)c2cc[nH]c2c1=O` [Compound I-149]: the GI50 in the assay with T47D cells was 500 to 1500 nM; in assay [1], less than 500 nM; in the assay on VCaP cells, less than 500 nM; in assay [2], less than 500 nM.

`CCS(=O)(=O)c1ccc(Oc2ccc(CN3CC4(CCN(c5ncc(C(=O)N[C@H]6C(C)(C)[C@H](Oc7ccc(C#N)c(Cl)c7)C6(C)C)cn5)CC4)C3)c(F)c2)c(-c2cn(C)c(=O)c3[nH]ccc23)c1` [Compound I-275]: the GI50 (in the assay with T47D cells (Homo sapiens); in assay [1]; in the assay with VCaP cells (Homo sapiens); in assay [2]) was less than 500 nM in each case.

With `CCS(=O)(=O)c1ccc(OC(CCCCCN2CCN(c3ncc(C(=O)N[C@H]4C(C)(C)[C@H](Oc5ccc(C#N)c(Cl)c5)C4(C)C)cn3)CC2)C2CC2)c(-c2cn(C)c(=O)c3[nH]ccc23)c1` (stereo partly shown) [Compound I-235], the GI50 (in the assay with T47D cells; in assay [1]; in the assay on VCaP cells; in assay [2]) was less than 500 nM throughout.

Take `Cn1cc(-c2cc(N)ccc2Oc2cccc(N3CC(N4CCN(c5ncc(C(=O)N[C@H]6C(C)(C)[C@H](Oc7ccc(C#N)c(Cl)c7)C6(C)C)cn5)CC4)C3)c2)c2cc[nH]c2c1=O` [Compound I-89, 2-(4-(1-(3-(4-amino-2-(6-methyl-7-oxo-6,7-dihydro-1H-pyrrolo[2,3-c]pyridin-4-yl)phenoxy)phenyl)azetidin-3-yl)piperazin-1-yl)-N-((1r, 3r)-3-(3-chloro-4-cyanophenoxy)-2,2,4,4-tetramethylcyclobutyl)pyrimidine-5-carboxamide]: the GI50 with T47D cells (Homo sapiens) is 500 to 1500 nM; in assay [1] it was greater than 3000 nM; with VCaP cells (Homo sapiens), less than 500 nM; in assay [2], less than 500 nM.

For the compound `CCS(=O)(=O)Cc1ccc(Oc2cccc(N3CC(N4CCN(c5ncc(C(=O)N[C@H]6C(C)(C)[C@H](Oc7ccc(C#N)c(Cl)c7)C6(C)C)cn5)CC4)C3)c2)c(-c2cn(C)c(=O)c3[nH]ccc23)c1` [Compound I-114], the GI50 (in the assay on T47D cells (Homo sapiens); in assay [1]; in the assay with VCaP cells (Homo sapiens); in assay [2]) was less than 500 nM throughout.

For `Cn1cc(-c2cc(C(C)(C)O)ccc2Oc2ccc(CCCC3CN(c4ncc(C(=O)N[C@H]5C(C)(C)[C@H](Oc6ccc(C#N)c(Cl)c6)C5(C)C)cn4)CCO3)cc2)c2cc[nH]c2c1=O` (stereo partly shown) [Compound I-307], the GI50 is less than 500 nM in the assay on T47D cells, greater than 3000 nM in assay [1], less than 500 nM in the assay on VCaP cells and less than 500 nM in assay [2].

Regarding `CCS(=O)(=O)Nc1ccc(Oc2ccc(N3CC(CC4CCN(c5ncc(C(=O)N[C@H]6C(C)(C)[C@H](Oc7ccc(C#N)c(Cl)c7)C6(C)C)cn5)CC4)C3)cc2)c(-c2cn(C)c(=O)c3[nH]ccc23)c1` [Compound I-337], the GI50 with T47D cells (Homo sapiens) was less than 500 nM; in assay [1], greater than 3000 nM; in the assay with VCaP cells (Homo sapiens), less than 500 nM; in assay [2], less than 500 nM.

`Cn1cc(-c2cc(C(C)(C)O)ccc2Oc2ccc(CC3CC(C4CCCN(c5ncc(C(=O)N[C@H]6C(C)(C)[C@H](Oc7ccc(C#N)c(Cl)c7)C6(C)C)cn5)C4)C3)cc2)c2cc[nH]c2c1=O` (single isomer, unassigned) [Compound I-349]: the GI50 with T47D cells is less than 500 nM; in assay [1] it was greater than 3000 nM; with VCaP cells, less than 500 nM; in assay [2] it was greater than 3000 nM.

(Values after patent US20250388605A1, “HETEROBIFUNCTIONAL COMPOUNDS AND METHODS OF TREATING DISEASE” (Halda Therapeutics OpCo, Inc., priority 2022, published 2025).)
